What was measured:
[1] = target: thrombin (Homo sapiens (Human), UniProt P00734); assay: Determination of the thrombin-inhibitory activity in plasma samples (ecarin, fluorogenic thrombin substrate); assay type: biochemical; conditions: thrombin inhibition in citrate plasma (Octapharma), ecarin-stimulated
Procedure: a.5) Determination of the Thrombin-Inhibitory Activity of the Potential Inhibitors in Plasma Samples
Various concentrations of the substances to be tested are dissolved in dimethyl sulphoxide and diluted with water. In white 96-well plates having a flat bottom, 20 μl of substance dilution are mixed with 20 μl of ecarin solution (ecarin reagent, from Sigma E-0504, final concentration 20 mU per batch) in Ca buffer (200 mM Hepes+560 mM sodium chloride+10 mM calcium chloride+0.4% PEG) or with 20 μl of Ca buffer (as unstimulated control). Furthermore, 20 μl of fluorogenic thrombin substrate (from Bachem I-1120, final concentration 50 μmol/l) and 20 μl of citrate plasma (from Octapharma) are added and homogenized thoroughly. The plate is measured in a SpectraFluorplus Reader using an excitation filter of 360 nm and an emission filter of 465 nm each minute over a period of 20 minutes. The IC50 value is determined when about 70% of the maximum signal is reached (about 12 min).

[2] = target: factor Xa (Homo sapiens (Human), UniProt P00742); assay: Determination of the factor Xa-inhibitory activity in plasma samples (RVV-activated factor X, chromogenic substrate); assay type: biochemical; conditions: factor Xa inhibition in citrate plasma (Octapharma), RVV-stimulated, ChromozymX substrate
Chain of factor Xa (P00742 whole entry, looked up): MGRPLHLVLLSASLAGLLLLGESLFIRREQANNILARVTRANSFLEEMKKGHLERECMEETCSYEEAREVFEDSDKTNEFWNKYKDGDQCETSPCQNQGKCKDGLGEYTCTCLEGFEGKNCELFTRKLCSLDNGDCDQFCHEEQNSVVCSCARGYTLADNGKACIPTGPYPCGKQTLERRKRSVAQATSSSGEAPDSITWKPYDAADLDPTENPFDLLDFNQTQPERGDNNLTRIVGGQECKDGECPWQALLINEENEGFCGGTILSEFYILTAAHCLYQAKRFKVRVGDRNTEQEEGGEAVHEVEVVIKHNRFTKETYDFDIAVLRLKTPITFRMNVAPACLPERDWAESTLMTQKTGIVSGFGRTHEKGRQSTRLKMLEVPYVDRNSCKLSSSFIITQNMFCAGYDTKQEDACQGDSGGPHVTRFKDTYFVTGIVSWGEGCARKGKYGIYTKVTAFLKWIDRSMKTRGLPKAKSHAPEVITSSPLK
Chain of factor Xa (P00742 whole entry, looked up): as above
Procedure: a.4) Determination of the Factor Xa-Inhibitory Activity of the Potential Inhibitors in Plasma Samples
To determine the inhibition of factor Xa in plasma samples, the factor X present in plasma is activated by a protease from rattlesnake toxin. The factor Xa activity or its inhibition by potential inhibitors is then measured by addition of a chromogenic substrate.
Various concentrations of the substances to be tested are dissolved in dimethyl sulphoxide and mixed with an aqueous refludan solution (10 μg/ml). In clear 96-well plates having a flat bottom, 30 μl of citrate plasma (Octapharma) are mixed with 10 μl of the substance dilution. Then, either 20 μl of a solution of a rattlesnake toxin (Russel viper venom (RVV); RVV reagent: Pentapharm 121-06, final concentration 0.6 mU) in an aqueous calcium chloride solution buffer (final concentration of calcium chloride 0.05 M) or 20 μl of the aqueous calcium chloride solution (final concentration of calcium chloride 0.05 M) without RVV reagent (as reference for an unstimulated sample) are added. After addition of 20 μl of ChromozymX substrate (final concentration 1.6 mmol/l, Bachem L-1565, diluted in water) the samples are measured in a SpectraFluor Reader using a measurement filter of 405 nm each minute over a period of 20 minutes. The IC50 value is determined when about 70% of the maximum signal is reached (about 12 min).

Structure (SMILES) | IC50 [1] | IC50 [2]
COCc1cc(N2C[C@H](CNC(=O)c3ccc(Cl)s3)OC2=O)ccc1-n1cccc(CCO)c1=O [Example 8] | 16 nM | 167 nM
Cc1cc(N2C[C@H](CNC(=O)c3ccc(Cl)s3)OC2=O)ccc1-n1cccc(CCO)c1=O [Example 6, 5-Chloro-N-[((5S)-3-{4-[3-(2-hydroxyethyl)-2-oxopyridin-1(2H)-yl]-3-methylphenyl}-2-oxo-1,3-oxazolidin-5-yl)methyl]thiophene-2-carboxamide] | 186 nM | 70 nM
Cc1cc(N2C[C@H](CNC(=O)c3ccc(Cl)s3)OC2=O)ccc1-n1cccc(CCCO)c1=O [Example 10, 5-Chloro-N-{[(5S)-3-{4-[3-(3-hydroxypropyl)-2-oxopyridin-1(2H)-yl]-3-methylphenyl}-2-oxo-1,3-oxazolidin-5-yl]methyl}thiophene-2-carboxamide] | 74 nM | 40 nM
Cc1cc(N2C[C@H](CNC(=O)c3ccc(Cl)s3)OC2=O)ccc1-n1cccc(CO)c1=O [Example 2, 5-Chloro-N-[((5S)-3-{4-[3-(hydroxymethyl)-2-oxopyridin-1(2H)-yl]-3-methylphenyl}-2-oxo-1,3-oxazolidin-5-yl)methyl]thiophene-2-carboxamide] | 198 nM | 21 nM
